Measured values: patent publication US7294641B2, “Heterocyclic compound for stimulating or inducing the growth of the hair or eyelashes and/or slowing down their loss, composition comprising it and its uses” (L'Oreal, priority 2002, dated 2007)
Where a name gives a salt, the structure may show the parent alone.

Tests used:
[1] = molecular target: T1, 15PGDH (Homo sapiens, UniProt P15428); assay: Test on 15-PGDH (spectrophotometric, 340 nm, PGE2/β-NAD); format: biochemical; set-up: made in house
T1 sequence (P15428 1-266): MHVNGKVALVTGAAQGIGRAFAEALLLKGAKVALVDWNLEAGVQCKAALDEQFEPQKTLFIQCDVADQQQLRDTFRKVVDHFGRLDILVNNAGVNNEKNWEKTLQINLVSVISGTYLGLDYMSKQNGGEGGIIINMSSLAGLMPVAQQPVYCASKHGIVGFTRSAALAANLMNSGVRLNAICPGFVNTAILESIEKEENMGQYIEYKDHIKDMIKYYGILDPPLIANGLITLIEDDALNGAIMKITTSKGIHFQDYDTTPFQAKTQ
Procedure: The enzyme 15-PGDH is obtained as disclosed in Application FR-A-02/05067, filed on behalf of L'Oréal, in suspension in a suitable medium at a concentration of 0.3 mg/ml, then blocked at −80° C. For the requirements of the test, this suspension is defrosted and stored in ice.
Furthermore, a Tris 100 mM, pH=7.4, buffer comprising 0.1 mM of dithiothreitol (D5545, Sigma-Aldrich, L'isle D'Abeau Chesne, BP 701, 38297, Saint Quentin Fallavier), 1.5 mM of β-NAD (N6522, Sigma-Aldrich, L'isle D'Abeau Chesne, BP 701, 38297, Saint Quentin Fallavier) and 50 μM of prostaglandin E2 (P4172, Sigma-Aldrich, L'isle D'Abeau Chesne, BP 701, 38297, Saint Quentin Fallavier) is prepared.
0.965 ml of this buffer (brought beforehand to 37° C.) is introduced into the cell of a spectrophotometer (Perkin-Elmer, Lambda 2) thermostatically controlled at 37° C., the wavelength of which for the measurement is adjusted to 340 nm. 0.035 ml of enzymatic suspension at 37° C. is introduced into the cell concomitantly with the recording (corresponding to an increase in optical density at 340 nm). The maximum rate of reaction is noted.
The test values (comprising the compounds (I)) are compared with the control value (without compound (I)); the results indicated represent the concentration at which the compound (I) inhibits 50% of the enzymatic activity of 15-PGDH, referred to as IC50dh.

[2] = molecular target: T2, PGF synthase (Homo sapiens, UniProt P42330); assay: Test on PGFS (spectrophotometric, 340 nm, 9,10-phenanthrenequinone/β-NADPH); format: biochemical; details: Tris 100 mM pH 6.5, 37° C., 20 μM 9,10-phenanthrenequinone, 100 μM β-NADPH; read-out: Inhibition of PGFS IC50fs
T2 construct: made in house
T2 sequence (P42330 1-323): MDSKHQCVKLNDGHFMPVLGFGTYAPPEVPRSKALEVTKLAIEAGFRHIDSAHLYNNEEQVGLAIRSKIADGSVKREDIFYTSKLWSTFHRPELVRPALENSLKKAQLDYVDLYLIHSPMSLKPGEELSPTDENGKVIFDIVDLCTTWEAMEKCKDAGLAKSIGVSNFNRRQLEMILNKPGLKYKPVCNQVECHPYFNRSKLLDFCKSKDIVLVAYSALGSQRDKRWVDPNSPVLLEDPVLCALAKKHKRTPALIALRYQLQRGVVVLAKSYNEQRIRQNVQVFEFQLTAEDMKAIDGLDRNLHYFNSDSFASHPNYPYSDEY
Procedure: The enzyme PGF synthase is obtained as disclosed in the document FR-A-02/05067, at a concentration of 0.5 mg/ml, in suspension in an appropriate medium, and is blocked at −80° C. For the requirements of the test, this suspension is defrosted and stored in ice.
Furthermore, a Tris 100 mM, pH=6.5, buffer comprising 20 μM of 9,10-phenanthrenequinone* (P2896, Sigma-Aldrich, L'isle D'Abeau Chesne, BP 701, 38297, Saint Quentin Fallavier) and 100 μM of β-NADPH(N1630, Sigma-Aldrich, L'isle D'Abeau Chesne, BP 701, 38297, Saint Quentin Fallavier) is prepared in a brown bottle (exclusion of light).
* A mother solution assaying 1 mM is prepared in absolute ethanol and is brought to 40° C.; the bottle is placed in an ultrasonic bath to facilitate the dissolution of the product.
0.950 ml of this buffer (brought beforehand to 37° C.) is introduced into the cell of a spectrophotometer (Perkin-Elmer, Lambda 2) thermostatically controlled at 37° C., the wavelength of which for the measurement is adjusted to 340 nm. 0.05 ml of enzymatic suspension at 37° C. is introduced into the cell concomitantly with the recording (corresponding to a fall in optical density at 340 nm). The maximum rate of reaction is noted. […]

[3] = molecular target: T1, 15PGDH; assay: Specific inhibitory effectiveness for 15PGDH on a cell model (PGF2 secreted by PMA/LPS-treated U937); format: cell-based; set-up: endogenous in cells; host or cells: U937 (ATCC CRL-1593), PMA-differentiated, LPS-stimulated; details: 5 μM test molecule, 10 ng LPS, 6 h at 37° C., immuno-enzymatic assay
Procedure: The present study is targeted at evaluating the compounds of formula (I) in a cell model. This study makes it possible to determine the penetration of the active principle into the cytosol and its effectiveness as specific inhibitor of 15-PGDH under more complex experimental conditions than a simple reaction medium.
D-2. Culturing of U937 (CRL-1593 American Type Cells Collection) in RPMI medium 1640+10% of foetal calf serum+2 mM of L-glutamine+antibiotics at 37° C. under 5% of CO2.
D-1. Preparation of a suspension of U937 (1×10^6 cells/ml) in RPMI medium 1640+10% of foetal calf serum+2 mM of glutamine+antibiotics+10 nM of PMA (phorbol 12-myristate 13-acetate); introduction of 200 μl per test well of this suspension into a 96-well plate (3 wells per molecule and per concentration to be tested+corresponding controls); incubation at 37° C. for 36 h 00 under 5% CO2.
D0. Removal of the supernatants (the cells have adhered to the bottom of the wells: monitoring using a microscope) and introduction into each well of 100 μl of RPMI 1640+2 mM of L-glutamine+10 ng of LipoPolySaccharide (LPS) (except absolute control)+the test molecule at the desired concentration (in this instance, 5 and 25 μM).
Incubation at 37° C. for 6 h 00 under 5% of CO2.
The mother solutions of test molecules are at 25 mM in DiMethyl SulfOxide.
All the wells comprise the same final amount of DMSO. […]

Row | SMILES | IC50 ([1]; Tris 100 mM pH 7.4, 37° C., 50 μM prostaglandin E2, 1.5 mM β-NAD, read-out: Inhibition of 15-PGDH IC50dh) [µM] | ratio IC50fs/IC50dh ([1]; selectivity for 15-PGDH with respect to PGFS) | IC50 [2] [µM] | amount of PGF2 secreted by the cells, % of the LPS control [3]
1 | O=C1NC(=O)C(=Cc2ccc(-c3ccc(C(=O)O)cc3)o2)S1 [Compound 1, 4-{5-[(2,4-Dioxo-1,3-thiazolidin-5-ylidene)methyl]-2-furyl}benzoic acid] | 0.3 | greater than 13 | 4 | +76 ± 20%
2 | O=C1N=C(O)/C(=C/c2ccc(-c3ccc(C(=O)O)cc3)o2)S1 [Compound 8, Disodium salt of 4-{5-[(2,4-disulpho-1,3-thiazolidin-5-ylidene)methyl]-2-furyl}benzoic acid (isomer Z)] | – | – | – | +44 ± 16%
